The source of these data is ChEMBL document CHEMBL1201862, “PubChem BioAssay data set” (2004).

Among the test systems are HOP-18; DMS-114; M19-MEL; XF498; SNB-78; DMS-273; KM-20L2; LXFL 529; RXF 631.
Test in all cases: inhibition of tumour cell growth, NCI panel, 48 h

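Method: 48-hour compound exposure of cells in 96-well plates, five concentrations, linear interpolation of endpoints. At the GI50, growth is halved.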 Active and inactive are the calls of the source. Rule as the data show it: active = GI50 up to about 1.1 µM and inactive = higher. Where only a bound is given, the exact number is not on record here.

`NS(=O)(=O)OCCCCCCCOS(N)(=O)=O`: the GI50 is 689 µM (inactive) with HOP-18; 130 µM (inactive) in the assay on DMS-114; 383 µM (inactive) with M19-MEL; 54.8 µM (inactive) in the assay with XF498; 526 µM (inactive) in the assay with SNB-78; 68.7 µM (inactive) with DMS-273. The GI50 in the assay with KM-20L2 was 488 µM (inactive).
Take `N#CCCN(CCC#N)c1ccc(/C=C(/NC(=O)c2cc([N+](=O)[O-])ccc2Cl)C(=O)N=[N+]=[N-])cc1`: the GI50 in the assay on HOP-18, in the assay with DMS-114, with M19-MEL, with LXFL 529, with SNB-78 and in the assay on DMS-273 was > 100 µM (inactive) each time. Besides, the GI50 in the assay on KM-20L2 and in the assay with RXF 631 was > 100 µM (inactive) each time.
Turning to `CCCCCCCCCC1CC(=O)OC23CCCC(=O)C12O3` (stereo not drawn), the GI50 is 62.5 µM (inactive) in the assay on HOP-18; 71.6 µM (inactive) in the assay on DMS-114; > 100 µM (inactive) with M19-MEL; > 100 µM (inactive) in the assay with XF498; > 100 µM (inactive) in the assay on LXFL 529; 60.8 µM (inactive) with SNB-78. Besides, the GI50 with DMS-273 and in the assay with KM-20L2 was > 100 µM (inactive) each time.
In the case of `COc1ccc2c(c1)C1C(CO2)C(c2ccccc2)=NN1c1ccccc1` (stereo not drawn), the GI50 in the assay on HOP-18, with DMS-114, with M19-MEL, with XF498, in the assay with LXFL 529 and in the assay on SNB-78 was > 100 µM (inactive) throughout. The GI50 in the assay with DMS-273, with KM-20L2 and with RXF 631 was > 100 µM (inactive) throughout.
Consider `O=S(=O)(c1ccccc1)C1CN2OC1(S(=O)(=O)c1ccccc1)CC21CCCCC1` (stereo not drawn), for which the GI50 is > 100 µM (inactive) with DMS-114; > 100 µM (inactive) in the assay on M19-MEL; 32.3 µM (inactive) in the assay with XF498; > 100 µM (inactive) in the assay on LXFL 529; 82.6 µM (inactive) in the assay with DMS-273; > 100 µM (inactive) in the assay with KM-20L2. Moreover, the GI50 in the assay on RXF 631 was > 100 µM (inactive).
In the case of `c1ccc(CN(Cn2cccn2)Cn2cccn2)nc1`, the GI50 with DMS-114 is 78.7 µM (inactive); in the assay with M19-MEL it was > 100 µM (inactive); with XF498, > 100 µM (inactive); in the assay on LXFL 529 it was > 100 µM (inactive); with SNB-78, > 100 µM (inactive); in the assay on DMS-273, 61.7 µM (inactive). The GI50 in the assay with KM-20L2 and with RXF 631 was > 100 µM (inactive) in each case.
For `COc1cc(/C=C(\C#N)C(=O)c2ccccc2)ccc1O`, the GI50 with M19-MEL, in the assay on XF498, in the assay on LXFL 529, with SNB-78 and with KM-20L2 was > 100 µM (inactive) each time.
Turning to `O=C1OC(c2ccc(Cl)c3ccccc23)c2ccccc21` (stereo not drawn), the GI50 was > 100 µM (inactive) with HOP-18; 71.3 µM (inactive) in the assay with DMS-114; > 100 µM (inactive) in the assay with M19-MEL; > 100 µM (inactive) in the assay with XF498; > 100 µM (inactive) with SNB-78; 64.3 µM (inactive) in the assay with KM-20L2. Also, the GI50 in the assay with RXF 631 is > 100 µM (inactive).
`O=C1C2C(C(=O)N1c1ccccc1)C1(Br)c3ccccc3C2(Br)C2C(=O)N(c3ccccc3)C(=O)C21` (stereo not drawn): the GI50 with HOP-18 was 18.1 µM (inactive); in the assay with DMS-114, > 31.6 µM (inactive); with M19-MEL it was > 31.6 µM (inactive); with XF498, 29.2 µM (inactive); with LXFL 529 it was 7.62 µM (inactive); with SNB-78 it was 12.5 µM (inactive). Also, the GI50 in the assay on DMS-273 is 11.7 µM (inactive); in the assay on KM-20L2, 24.5 µM (inactive); with RXF 631, > 100 µM (inactive).
Turning to `O=C(Nc1cccc([N+](=O)[O-])c1)/C(=N\NC(=O)c1ccncc1)c1nc2ccc([N+](=O)[O-])cc2nc1O`, the GI50 with DMS-114 was 13.9 µM (inactive); with LXFL 529, 35.6 µM (inactive); in the assay on SNB-78, > 100 µM (inactive).
As for `N#CC(C(=O)/C(=N/NC(=O)c1ccccc1O)C(C#N)c1ccc(Cl)cc1)c1ccc(Cl)cc1` (stereo not drawn), the GI50 in the assay with HOP-18 is 11.5 µM (inactive); with DMS-114 it was 23.8 µM (inactive); with M19-MEL, 14.1 µM (inactive); with XF498, 13.5 µM (inactive); in the assay on LXFL 529, 12.6 µM (inactive); in the assay on SNB-78 it was 19.5 µM (inactive). For the same compound, the GI50 in the assay on KM-20L2 was 13.7 µM (inactive).
Turning to `COC(=O)C1CC/C(=N/C2c3ccccc3-c3ccccc32)N1` (stereo not drawn), the GI50 in the assay with HOP-18 is > 100 µM (inactive); with DMS-114, 43.8 µM (inactive); in the assay with M19-MEL it was > 100 µM (inactive); in the assay with XF498, > 100 µM (inactive); in the assay on LXFL 529, > 100 µM (inactive); in the assay on SNB-78 it was > 100 µM (inactive). For the same compound, the GI50 in the assay on DMS-273, with KM-20L2 and with RXF 631 was > 100 µM (inactive) throughout.
As for `O=C1c2c(O)cccc2C(C(=O)CCCC(=O)C2c3cccc(O)c3C(=O)c3c(O)cccc32)c2cccc(O)c21`, the GI50 in the assay on HOP-18 is 0.378 µM (active); with DMS-114, 0.116 µM (active); with M19-MEL, 0.151 µM (active); with XF498, 0.0752 µM (active); in the assay with LXFL 529, 0.139 µM (active); in the assay on SNB-78, 0.213 µM (active). The GI50 with DMS-273 is 0.437 µM (active); in the assay with KM-20L2, 1.19 µM (inactive); with RXF 631, 0.578 µM (active).
Consider `Cc1[nH]c(=O)nc(N/N=C/c2ccc(O)cc2)c1C(=O)Nc1ccc(Cl)cc1`, for which the GI50 in the assay on HOP-18, in the assay with DMS-114, in the assay on M19-MEL, in the assay with LXFL 529, with SNB-78 and with DMS-273 was > 100 µM (inactive) throughout. Besides, the GI50 in the assay with KM-20L2 and with RXF 631 was > 100 µM (inactive) each time.
Regarding `N#CC(C(=O)/C(=N\NC(N)=O)C(C#N)c1ccccc1)c1ccccc1` (stereo not drawn), the GI50 in the assay with LXFL 529, in the assay on SNB-78, with DMS-273, in the assay with KM-20L2 and with RXF 631 was > 100 µM (inactive) in each case.
`N#Cc1ccc2cc3c(cc2c1)OCO3`: the GI50 was > 100 µM (inactive) in the assay with DMS-114; > 100 µM (inactive) in the assay on M19-MEL; > 100 µM (inactive) in the assay with LXFL 529; > 100 µM (inactive) with SNB-78; 95.5 µM (inactive) in the assay on DMS-273; > 100 µM (inactive) in the assay on KM-20L2. Moreover, the GI50 with RXF 631 was > 100 µM (inactive).
For `CC(C)N(C(C)C)P(OCCC#N)OC1CC(n2cnc3c(=O)[nH]cnc32)OC1COC(=O)NCCCCCCNC(=O)OC(C)(C)c1ccc(-c2ccccc2)cc1` (stereo not drawn), the GI50 in the assay with HOP-18 was 92 µM (inactive); in the assay with DMS-114 it was 21.8 µM (inactive); with M19-MEL it was 21.5 µM (inactive); in the assay on LXFL 529, 17.5 µM (inactive); in the assay with SNB-78, 30.5 µM (inactive); with DMS-273 it was 17.4 µM (inactive). The GI50 in the assay with KM-20L2 was 43.2 µM (inactive).
Turning to `CNC(N)NC`, the GI50 with HOP-18, in the assay on DMS-114, in the assay with M19-MEL, in the assay with XF498, in the assay on LXFL 529 and in the assay on SNB-78 was > 100 µM (inactive) in each case. Further, the GI50 in the assay with DMS-273 and in the assay with KM-20L2 was > 100 µM (inactive) each time.
Consider `COc1ccc2c(c1)CCC(OS(=O)(=O)CC13CCC(CC1=O)C3(C)C)C2=O` (stereo not drawn), for which the GI50 with HOP-18 was 30.1 µM (inactive); in the assay on DMS-114, 27.5 µM (inactive); in the assay on M19-MEL, 34.2 µM (inactive); with XF498 it was 31.2 µM (inactive); in the assay with LXFL 529, 29.8 µM (inactive); with DMS-273 it was 26.4 µM (inactive). For the same compound, the GI50 with KM-20L2 was 19.5 µM (inactive).
Consider `C/C1=N\[N-]C(=O)c2ccccc2C(=O)N/N=C(\C)c2cccc1n2.O=[N+]([O-])[O-].[Zn+2]`, for which the GI50 was > 100 µM (inactive) in the assay with HOP-18; > 100 µM (inactive) with DMS-114; 44.2 µM (inactive) in the assay with LXFL 529; > 100 µM (inactive) in the assay on SNB-78; > 100 µM (inactive) with KM-20L2.
For `CCN(CC)CCNc1ccc2nnn3c4ccc(C)cc4c(=O)c1c23`, the GI50 with DMS-114 is 9.12 µM (inactive); in the assay with M19-MEL it was 14.6 µM (inactive); in the assay with LXFL 529, 12 µM (inactive); with SNB-78, 10.9 µM (inactive); in the assay with KM-20L2 it was 6.32 µM (inactive); in the assay on RXF 631, 5.28 µM (inactive).
Regarding `NC(=O)c1cccc([N+](=O)[O-])c1`, the GI50 in the assay on DMS-114, in the assay with M19-MEL, in the assay with XF498, in the assay on LXFL 529, in the assay on SNB-78 and in the assay on DMS-273 was > 100 µM (inactive) in each case. In addition, the GI50 with KM-20L2 was > 100 µM (inactive).
`CC1=C2C(=O)C(C)(C)C=C2C(=O)[C@](C)(O)C12CC2` [DEHYDROILLUDIN M]: the GI50 in the assay on HOP-18 was > 1 µM (active); with M19-MEL, > 0.953 µM (active); in the assay on XF498 it was 0.664 µM (active); with LXFL 529, 0.698 µM (active); in the assay on SNB-78 it was 0.522 µM (active); with DMS-273 it was 0.282 µM (active). For the same compound, in the assay on KM-20L2, the GI50 is 0.527 µM (active).
